Experimental data taken from patent publication US20230192617A1, “AZABICYCLIC(THIO)AMIDES AS FUNGICIDAL COMPOUNDS” (Bayer CropScience Aktiengesellschaft, priority 2020, published 2023).

Tests used:
Alternaria alternata = Alternaria alternata in vitro cell test; assay type: cell-based; conditions: 120 h, 20 ppm of active ingredient, liquid culture, 5 days incubation, spectrometric measurement of mycelium growth, read-out: efficacy (inhibition of fungal growth)
Outline: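 Spectrometric readout of mycelial growth after 5-day incubation gauged compound effects on spore germination and growth of A. alternata in liquid medium. Compounds were delivered in DMSO at ≤1% final. Absorbance was compared with untreated controls to give inhibition.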

[1] = test system: Colletotrichum lindemuthianum; test: B-8. Colletotrichum lindemuthianum in vitro cell test; assay type: cell-based; conditions: 144 h, 20 ppm of active ingredient, 6 days incubation, liquid culture, absorbance, read-out: efficacy (inhibition of fungal growth)
Outline: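 Liquid-culture germination/growth test: compounds in ≤1% final DMSO were added to spore-containing medium. Fungal growth was quantified spectrophotometrically after 6 days of incubation and expressed as inhibition versus untreated controls.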

Septoria tritici = test: B-9. Septoria tritici in vitro cell test; assay type: cell-based; conditions: Zymoseptoria tritici, 168 h; 20 ppm of active ingredient; 7 days incubation; liquid culture, absorbance; read-out: efficacy (inhibition of fungal growth)
Method: B-9. Septoria tritici In Vitro Cell Test [table] Fungicides were solubilized in DMSO and the solution used to prepare the required range of concentrations. The final concentration of DMSO used in the assay was ≤1%. A spore suspension of S. tritici was prepared and diluted to the desired spore density. Fungicides were evaluated for their ability to inhibit spore germination and mycelium growth in liquid culture assay. The compounds were added in the desired concentration to the culture medium with spores. After 7 days incubation, fungi-toxicity of compounds was determined by spectrometric measurement of mycelium growth. Inhibition of fungal growth was determined by comparing the absorbance values in wells containing the fungicides with the absorbance in control wells without fungicides.

Pyrenophora teres [2] = test: B-10. Pyrenophora teres in vitro cell test; assay type: cell-based; conditions: 144 h, 20 ppm of active ingredient, 6 days incubation, liquid culture, absorbance, read-out: efficacy (inhibition of fungal growth)
Outline: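 Liquid-culture assay on a P. teres spore suspension with compounds added to the medium from DMSO solutions, final DMSO ≤1%. Mycelium growth read spectrometrically after 6 days. Inhibition calculated from absorbance against untreated control wells.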

Botrytis cinerea [3] = test: B-11. Botrytis cinerea in vitro cell test; assay type: cell-based; conditions: 144 h, 20 ppm of active ingredient, 6 days incubation, liquid culture, absorbance, read-out: efficacy (inhibition of fungal growth)
Outline: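 B. cinerea spores were grown in liquid culture with compound (DMSO ≤1% final). Mycelium growth was measured spectrometrically after 6 days, with inhibition taken as absorbance relative to untreated control wells.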

[4] = Measurement of Log P values by HPLC on reversed phase columns (EEC directive 79/831 Annex V.A8); assay type: physicochemical; conditions: reversed phase HPLC column, method [a]: LC-UV, acidic range, 0.1% formic acid in water and acetonitrile as eluent
Outline: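 Log P derived from retention on reversed-phase columns (EEC directive 79/831 Annex V.A8), LC-UV, acetonitrile gradient 10% to 95% against water containing 0.1% formic acid, 0.001 M ammonium acetate, or 0.1% phosphoric acid; several values per method separated by "+".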

Alternaria brassicae = test: In vivo preventive test on Alternaria brassicae (leaf spot on radish or cabbage); conditions: 500 ppm of active ingredient, preventive spray on radish or cabbage, evaluated 3 to 4 days after inoculation, read-out: efficacy
Outline: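 Protective spray on young radish or cabbage: actives in water diluted from DMSO/acetone/Tween 80, with solvent-only controls. Leaves were challenged after 24 h with a spore suspension, and plants were held at 100% RH, 20 °C for 3 to 4 days.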

Botrytis cinerea [5] = test: In vivo preventive test on Botrytis cinerea (grey mould); conditions: 500 ppm of active ingredient, preventive spray on gherkin or cabbage, evaluated 4 to 5 days after inoculation, read-out: efficacy
Outline: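 Preventive spray on cabbage or gherkin seedlings, with compound formulated in DMSO/acetone/Tween 80 and water-diluted, preceded spore inoculation by 24 hours. Cabbage was held 4 to 5 days at 20° C., 100% relative humidity; gherkin 4 to 5 days at 17° C., 90% relative humidity.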

Pyrenophora teres [6] = test: In vivo preventive test on Pyrenophora teres (net blotch on barley); conditions: 240 h, 500 ppm of active ingredient, preventive spray on barley, evaluated 10 days after inoculation, read-out: efficacy
Method: B-3. In Vivo Preventive Test on Pyrenophora Teres (Net Blotch on Barley) [table] The active ingredients were made soluble and homogenized in a mixture of Dimethyl sulfoxide/Acetone/Tween® 80 and then diluted in water to the desired concentration. The young plants of barley were treated by spraying the active ingredient prepared as described above. Control plants were treated only with an aqueous solution of Acetone/Dimethyl sulfoxide/Tween® 80. After 24 hours, the plants were contaminated by spraying the leaves with an aqueous suspension of Pyrenophora teres spores. The contaminated barley plants were incubated for 48 hours at 20° C. and at 100% relative humidity and then for 8 days at 20° C. and at 70-80% relative humidity.

Sphaerotheca fuliginea = test: In vivo preventive test on Sphaerotheca fuliginea (powdery mildew on cucurbits); conditions: Podosphaera fuliginea, 192 h; 500 ppm of active ingredient; preventive spray on gherkin; evaluated 8 days after inoculation; read-out: efficacy
Outline: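 This is a preventive spray test on gherkin seedlings, with compound formulated in DMSO/acetone/Tween 80 in water and solvent-only controls. Spore inoculation followed one day after treatment. Incubation lasted 8 days at 20 °C, 70–80% RH.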

[7] = test system: Colletotrichum lindemuthianum; test: In vivo preventive test on Colletotrichum lindemuthianum (leaf spot on bean); conditions: 168 h, 500 ppm of active ingredient, preventive spray on bean, evaluated 7 days after inoculation, read-out: efficacy
Outline: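 Young bean plants sprayed with compound in DMSO/acetone/Tween 80 diluted in water; solvent-only controls. Inoculated 24 h later with C. lindemuthianum spore suspension, then kept 24 h at 20 °C/100% RH and 6 days at 20 °C/90% RH.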

Structure (SMILES) | chromatographic logP [4] | inhibition at 20 ppm (Alternaria alternata) [%] | inhibition at 20 ppm [1] [%] | inhibition at 20 ppm (Septoria tritici) [%] | inhibition at 20 ppm (Pyrenophora teres [2]) [%] | inhibition at 20 ppm (Botrytis cinerea [3]) [%] | pest or weed control at 500 ppm (Alternaria brassicae) [%] | pest or weed control at 500 ppm (Botrytis cinerea [5]) [%] | pest or weed control at 500 ppm (Pyrenophora teres [6]) [%] | pest or weed control at 500 ppm (Sphaerotheca fuliginea) [%] | pest or weed control at 500 ppm [7] [%]
Cc1cc(Cl)ccc1C(F)(F)CNC(=O)c1c(Oc2cccc(C(F)F)c2)nnc2c1CCCC2 [I-163] | – | 90 to 100 | 90 to 100 | 90 to 100 | 90 to 100 | 90 to 100 | – | – | – | – | –
Cc1ccc(C(F)CNC(=O)c2c(Oc3cccc(Cl)c3F)nnc3c2CCC3)c(C)c1 (centres unmarked) [I-236] | 3.73 | 80 to 89 | – | – | 90 to 100 | 90 to 100 | 90 to 100 | 90 to 100 | 90 to 100 | 90 to 100 | 90 to 100
Cc1cc(Br)ccc1[C@@H](F)CNC(=O)c1c(Oc2cccc(Cl)c2)nnc2ccccc12 (racemic) [I-055] | 4.33 | 90 to 100 | 90 to 100 | – | – | 90 to 100 | 90 to 100 | 90 to 100 | 80 to 89 | 90 to 100 | 70 to 79
O=C(NC[C@H](F)c1ccc(C2CC2)cc1Cl)c1c(Oc2cccc(Cl)c2)nnc2ccccc12 (racemic) [I-054] | 4.47 | 90 to 100 | 90 to 100 | – | – | 90 to 100 | 90 to 100 | 90 to 100 | 80 to 89 | 70 to 79 | 90 to 100
O=C(NCC(F)c1ccc(Cl)cc1Cl)c1c(Oc2cccc(Cl)c2)nnc2c1CCCC2 (centres unmarked) [I-179] | 3.89 | 90 to 100 | 90 to 100 | 90 to 100 | 90 to 100 | 90 to 100 | – | – | – | – | –
Cc1ccc(C(F)CNC(=O)c2c(Oc3cccc(C(F)(F)F)c3)nnc3c2CCC3)c(C)c1 (centres unmarked) [I-138] | 3.84 | 90 to 100 | 90 to 100 | 90 to 100 | 90 to 100 | 90 to 100 | – | – | – | – | –
Cc1ccc([C@@H](F)CNC(=O)c2c(Oc3cccc(C(F)(F)F)c3)nnc3c2OCC(C)(C)CO3)c(C)c1 (racemic) [I-156] | 4.15 | 90 to 100 | 90 to 100 | 90 to 100 | 90 to 100 | 90 to 100 | – | – | – | – | –
Cc1cc(Cl)ccc1[C@@H](F)CNC(=O)c1c(Oc2cccc(Cl)c2)nnc2ccccc12 (racemic) [I-053] | 4.23 | 90 to 100 | 90 to 100 | – | – | 90 to 100 | 90 to 100 | 90 to 100 | 70 to 79 | 80 to 89 | 90 to 100
Cc1ccc(CCNC(=O)c2c(Oc3cccc(C(F)(F)F)c3)cnc3ccccc23)c(C)c1 [I-002] | 4.17 | 90 to 100 | 90 to 100 | 90 to 100 | – | 90 to 100 | – | 90 to 100 | – | 90 to 100 | –
Cc1ccc(C(F)(F)CNC(=O)c2c(Oc3cccc(Br)c3)cnc3ccccc23)c(C)c1 [I-226] | 4.48 | 90 to 100 | 90 to 100 | – | 90 to 100 | 90 to 100 | 90 to 100 | 90 to 100 | 70 to 79 | 90 to 100 | 90 to 100
O=C(NCC(F)(F)c1ccc(Cl)cc1)c1c(Oc2cccc(C(F)F)c2)nnc2c1CCCC2 [I-120] | 3.37 | 90 to 100 | 90 to 100 | 80 to 89 | 90 to 100 | 90 to 100 | – | – | – | – | –
O=C(NC[C@H](F)c1ccc(Br)cc1Cl)c1c(Oc2cccc(C(F)F)c2)nnc2ccccc12 (racemic) [I-029] | 4.01 | 90 to 100 | 90 to 100 | – | – | – | 90 to 100 | 90 to 100 | 70 to 79 | 70 to 79 | 90 to 100

Second part, led by results:

chromatographic logP [4] | Structure (SMILES) | inhibition at 20 ppm (Alternaria alternata) [%] | inhibition at 20 ppm [1] [%] | inhibition at 20 ppm (Septoria tritici) [%] | inhibition at 20 ppm (Pyrenophora teres [2]) [%] | inhibition at 20 ppm (Botrytis cinerea [3]) [%] | pest or weed control at 500 ppm (Alternaria brassicae) [%] | pest or weed control at 500 ppm (Botrytis cinerea [5]) [%] | pest or weed control at 500 ppm (Pyrenophora teres [6]) [%] | pest or weed control at 500 ppm (Sphaerotheca fuliginea) [%] | pest or weed control at 500 ppm [7] [%]
4.04 | Cc1ccc(CCNC(=O)c2c(Oc3cccc(C(F)(F)F)c3)cnc3ccoc23)c(C)c1 [I-068] | 90 to 100 | 90 to 100 | – | 90 to 100 | 90 to 100 | 90 to 100 | 90 to 100 | 80 to 89 | 90 to 100 | 90 to 100
4.59 | Cc1ccc(C(F)(F)CNC(=O)c2c(Oc3cccc(C4CC4)c3)cnc3ccccc23)c(C)c1 [I-223] | 90 to 100 | 90 to 100 | – | 90 to 100 | 90 to 100 | 90 to 100 | 90 to 100 | 80 to 89 | 90 to 100 | 90 to 100
4.63 | Cc1ccc(C(F)(F)CNC(=O)c2c(Oc3cccc(C4CC4)c3F)cnc3ccccc23)c(C)c1 [I-224] | 90 to 100 | 90 to 100 | – | 90 to 100 | 90 to 100 | 80 to 89 | 90 to 100 | 70 to 79 | 90 to 100 | 90 to 100
3.73 | Cc1ccc(C(F)CNC(=O)c2c(Oc3cccc(Cl)c3)nnc3c2CCCC3)c(C)c1 (centres unmarked) [I-233] | 90 to 100 | 90 to 100 | 90 to 100 | 90 to 100 | 90 to 100 | – | – | – | – | –
3.42 | O=C(NOCc1ccc(C(F)(F)F)cc1)c1c(Oc2cccc(C(F)(F)F)c2)nnc2ccccc12 [I-089] | 90 to 100 | 90 to 100 | 80 to 89 | 90 to 100 | 90 to 100 | 90 to 100 | 70 to 79 | – | – | –
3.63 | O=C(NCC(F)c1ccc(Cl)cc1Cl)c1c(Oc2cccc(C(F)F)c2)nnc2c1CCCC2 (centres unmarked) [I-177] | 90 to 100 | 90 to 100 | 90 to 100 | 90 to 100 | 90 to 100 | – | – | – | – | –
